In paper PMC11898701, “Evaluating Therapeutic Efficacy of the Vascular Disrupting Agent OXi8007 Against Kidney Cancer in Mice” (Cancers, 2025):

Assays:
[1] = test system: orthotopic Renca-luc tumors; assay: Long-term therapy with OXi8007 and/or cabozantinib; type: in vivo, mouse
Procedure: (§1) OXi8007, synthesized by the Pinney Laboratory using published procedures, was dissolved in saline, verified to be in the pH range 7.3 to 7.5, and dosed at 250 mg/kg (IP). Cabozantinib (in PEG400 and ultrapure H2O (Milli-Q)) was administered at 3 mg/kg by oral gavage. Anti-PD-1 (10 mg/kg, Bio X Cell, Lebanon, NH, USA) and anti-CTLA-4 (5 mg/kg, Bio X Cell, Lebanon, NH) solutions were administered (IP) on the day before OXi8007 […].
We evaluated the longitudinal effects of OXi8007 alone and in combination with drugs currently favored for treating kidney cancer. For Renca-luc tumor-bearing mice, BLI was performed at least once a week to estimate tumor size, and mice were weighed weekly to adjust the dose as needed. Two treatment cohorts examined syngeneic orthotopic Renca-luc tumors in male BALB/c mice. Treatment started when the tumors reached about 1 × 10^6 photons/s peak total flux on BLI. The first cohort examined OXi8007 with cabozantinib. Mice were divided into four groups. Mice were assigned to groups as soon as there were sufficient to add the same numbers of animals to each group. The specific assignment was defined using the random number function in Excel. […] The second cohort was treated with CKIs and OXi8007 using four groups: Group 5 (OXi8007 + anti-PD-1 (10 mg/kg) + anti-CTLA-4 (5 mg/kg); n = 4), Group 6 (saline + anti-PD-1+ anti-CTLA-4; n = 3), Group 7 (saline + anti-PD-1; n = 3), and Group 8 (saline + anti-CTLA-4; n = 4). CKI antibodies were administered thrice weekly (M, W, F) for the first two weeks after the first treatment with OXi8007, which was administered twice weekly. […] Initial tumor growth was confirmed by palpation, and the mice were assigned to groups such that the first mouse with a confirmed tumor was assigned to Group 5, next to Group 6, etc., ensuring that all groups had both faster- and slower-growing tumors. […] Tumor size (BLI signal) and mouse body weights were compared using an ANOVA and multiple comparisons at a significance level of p < 0.05. Kaplan–Meier survival curves were compared using a non-parametric log-rank test using SAS software (SAS Institute Inc., SAS Viya for learners 4, Cary, NC, USA).

[2] = test system: subcutaneous Renca tumors; parameters: method as in PMID 33954115; details: 10 mg/kg, day 14; cited from earlier work
[3] = test system: orthotopic XP258 human tumor xenografts; assay: Long-term therapy of XP258 human tumor xenografts; type: in vivo, mouse; details: XP258 in NOD/SCID mice; OXi8007 250 mg/kg IP twice weekly, cabozantinib 3 mg/kg oral daily
From the text: The animal procedures were approved by the UT Southwestern Medical Center Institutional Animal Care and Use Committee under APNs 2017-102152 and 2018-102344-CORE. Renca-luc orthotopic tumors were induced by inserting tumor tissue (~1 mm^3) harvested from a donor mouse into the right kidney of syngeneic BALB/c mice (age 8 weeks, male and female; Envigo, Indianapolis, IN, USA), as described previously. Orthotopic XP258 tumors (derived from a patient with pT3aN0M1 clear cell RCC) were obtained from the UT Southwestern Kidney Cancer SPORE [53, 54] and maintained by serial passage. Tumors were induced by inserting tumor tissues from a donor tumor into the left kidney capsule of female NOD/SCID mice (Envigo).
as §1
We evaluated the longitudinal effects of OXi8007 alone and in combination with drugs currently favored for treating kidney cancer. For Renca-luc tumor-bearing mice, BLI was performed at least once a week to estimate tumor size, and mice were weighed weekly to adjust the dose as needed. Two treatment cohorts examined syngeneic orthotopic Renca-luc tumors in male BALB/c mice. Treatment started when the tumors reached about 1 × 10^6 photons/s peak total flux on BLI. The first cohort examined OXi8007 with cabozantinib. Mice were divided into four groups. Mice were assigned to groups as soon as there were sufficient to add the same numbers of animals to each group. The specific assignment was defined using the random number function in Excel. As such, each group included both faster- and slower-growing tumors. […]

For `COc1cc2nccc(Oc3ccc(NC(=O)C4(C(=O)Nc5ccc(F)cc5)CC4)cc3)c2cc1OC` [cabozantinib, reference compound], the “Body weight versus untreated control mice” value ([1]; Renca-luc BALB/c mice, over course of treatment) was “significant weight loss”, the “Tumor growth delay (BLI)” value ([1]; Renca-luc, versus control) was “significant tumor growth delay” and the Median survival time ([1]; Renca-luc, OXi8007 250 mg/kg IP twice weekly, cabozantinib 3 mg/kg oral daily) was 64 days. For the same compound, the Tumor size reduction [2] was 50% and the Survival versus controls [3] was “significantly enhanced survival”.
